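Following 48 hours of exposure in 96-well plates, responses at five concentrations were used to interpolate endpoints linearly. The concentration for 50% growth inhibition is given as GI50.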 The source made the active and inactive calls. Cut-off read from the data, not from the text of the source: active = GI50 up to about 1.1 µM and inactive = higher.
What was measured:
Assay in all cases: DTP human tumour cell line panel, 48 h
DU-145 = tested on: DU-145
Malme-3M = tested on: Malme-3M
CAKI-1 = tested on: CAKI-1
MDA-MB-435 = tested on: MDA-MB-435
OVCAR-5 = tested on: OVCAR-5
KM12 = tested on: KM12
SK-MEL-28 = tested on: SK-MEL-28
SF-295 = tested on: SF-295
ACHN = tested on: ACHN
OVCAR-4 = tested on: OVCAR-4
CCRF-CEM = tested on: CCRF-CEM
LOX IMVI = tested on: LOX IMVI
RPMI-8226 = tested on: RPMI-8226
SR = tested on: SR
NCI/ADR-RES = tested on: NCI/ADR-RES
HCT-116 = tested on: HCT-116
UACC-62 = tested on: UACC-62
A498 = tested on: A498
BT-549 = tested on: BT-549
LXFL 529 = tested on: LXFL 529

SMILES	GI50 (DU-145)	GI50 (Malme-3M)	GI50 (CAKI-1)	GI50 (MDA-MB-435)	GI50 (OVCAR-5)	GI50 (KM12)	GI50 (SK-MEL-28)	GI50 (SF-295)	GI50 (ACHN)	GI50 (OVCAR-4)	GI50 (CCRF-CEM)	GI50 (LOX IMVI)	GI50 (RPMI-8226)	GI50 (SR)	GI50 (NCI/ADR-RES)	GI50 (HCT-116)	GI50 (UACC-62)	GI50 (A498)	GI50 (BT-549)	GI50 (LXFL 529)
O=C1c2ccccc2-c2c1c1ccccc1c(=O)n2CCO	13.5 µM (inactive)	26.5 µM (inactive)	3.53 µM (inactive)	> 72.9 µM (inactive)	> 100 µM (inactive)	6.38 µM (inactive)	> 76.6 µM (inactive)	11.8 µM (inactive)	2.17 µM (inactive)	33.2 µM (inactive)	3.49 µM (inactive)	5.28 µM (inactive)	> 26.9 µM (inactive)	2.24 µM (inactive)	14.6 µM (inactive)	4.83 µM (inactive)	11.5 µM (inactive)	35 µM (inactive)	18.5 µM (inactive)	–
Cc1ncc(CCl)c2c1OC(C)(C)OC2	–	19.2 µM (inactive)	–	–	22.3 µM (inactive)	37.5 µM (inactive)	24 µM (inactive)	> 100 µM (inactive)	21.3 µM (inactive)	15.1 µM (inactive)	47.8 µM (inactive)	17.3 µM (inactive)	37.2 µM (inactive)	–	–	25.1 µM (inactive)	> 100 µM (inactive)	> 100 µM (inactive)	–	> 100 µM (inactive)
Oc1ccc(/N=C/c2ccc(/C=N/c3ccc(O)cc3)cc2)cc1	18 µM (inactive)	18 µM (inactive)	20 µM (inactive)	16.3 µM (inactive)	19.3 µM (inactive)	15.3 µM (inactive)	18.8 µM (inactive)	16.8 µM (inactive)	13.1 µM (inactive)	14.5 µM (inactive)	6.41 µM (inactive)	16.1 µM (inactive)	10.1 µM (inactive)	6.44 µM (inactive)	14.8 µM (inactive)	14.8 µM (inactive)	12.6 µM (inactive)	24.3 µM (inactive)	17.4 µM (inactive)	–
CN1C/C(=C\c2cccs2)C2=NC(=S)NC(c3cccs3)C2C1 (configuration not stated)	> 100 µM (inactive)	16 µM (inactive)	> 100 µM (inactive)	43.9 µM (inactive)	> 100 µM (inactive)	57 µM (inactive)	93.3 µM (inactive)	42.8 µM (inactive)	64.9 µM (inactive)	29.5 µM (inactive)	19.7 µM (inactive)	67.9 µM (inactive)	29.9 µM (inactive)	18.2 µM (inactive)	44.4 µM (inactive)	64.4 µM (inactive)	81.1 µM (inactive)	61.8 µM (inactive)	46.1 µM (inactive)	–
COC1OC(CBr)C(OC(c2ccccc2)(c2ccccc2)c2ccccc2)C(OC(c2ccccc2)(c2ccccc2)c2ccccc2)C1OC(c1ccccc1)(c1ccccc1)c1ccccc1 (configuration not stated)	76.2 µM (inactive)	33.8 µM (inactive)	> 100 µM (inactive)	> 100 µM (inactive)	41 µM (inactive)	> 100 µM (inactive)	> 100 µM (inactive)	42 µM (inactive)	45.9 µM (inactive)	18.3 µM (inactive)	> 100 µM (inactive)	> 100 µM (inactive)	65.3 µM (inactive)	> 100 µM (inactive)	51.6 µM (inactive)	37.6 µM (inactive)	> 100 µM (inactive)	78.2 µM (inactive)	56.9 µM (inactive)	–
CN(C)CCCN1c2ccccc2CCc2cccc([N+](=O)[O-])c21	17.4 µM (inactive)	16.9 µM (inactive)	20 µM (inactive)	16.7 µM (inactive)	28.8 µM (inactive)	17.1 µM (inactive)	13.4 µM (inactive)	16.5 µM (inactive)	22.5 µM (inactive)	18 µM (inactive)	5.38 µM (inactive)	16.6 µM (inactive)	11.1 µM (inactive)	13.6 µM (inactive)	16.5 µM (inactive)	15.6 µM (inactive)	18.5 µM (inactive)	19.5 µM (inactive)	25.9 µM (inactive)	–
CC/C=C/c1cc2c(c3[nH]ccc13)[C@@H](C)CC2C.CC/C=C/c1cc2cc[nH]c2c2c1C(C)C[C@@H]2C.CCc1cc2c(c3[nH]ccc13)[C@@H](C)CC2C (some centres not stated)	–	20.2 µM (inactive)	15.1 µM (inactive)	–	19.9 µM (inactive)	16.8 µM (inactive)	15.7 µM (inactive)	16.6 µM (inactive)	16.2 µM (inactive)	15.4 µM (inactive)	–	15.6 µM (inactive)	–	–	–	18.5 µM (inactive)	–	–	–	16.4 µM (inactive)
CCc1cc(C)cc2[n+]1CC=C2C.[O-][Cl+3]([O-])([O-])[O-]	–	35 µM (inactive)	65.9 µM (inactive)	–	> 100 µM (inactive)	> 100 µM (inactive)	> 100 µM (inactive)	> 100 µM (inactive)	> 100 µM (inactive)	> 100 µM (inactive)	–	> 100 µM (inactive)	–	–	–	–	–	–	–	80.5 µM (inactive)
COc1ccccc1NC1Oc2cc3c(cc2C(c2cc(OC)c(OC)c(OC)c2)C1C)OCO3 (configuration not stated)	4.75 µM (inactive)	0.383 µM (active)	2.22 µM (inactive)	0.242 µM (active)	6.64 µM (inactive)	1.43 µM (inactive)	> 25.1 µM (inactive)	0.689 µM (active)	9.91 µM (inactive)	6.37 µM (inactive)	2.37 µM (inactive)	6.62 µM (inactive)	1.93 µM (inactive)	1.03 µM (active)	2.59 µM (inactive)	2.42 µM (inactive)	1.53 µM (inactive)	4.9 µM (inactive)	2.84 µM (inactive)	–
CC(=O)OC1COC(Nc2nc(N)n(C)c(=O)c2N=O)C(OC(C)=O)C1OC(C)=O (configuration not stated)	> 10 µM (inactive)	> 10 µM (inactive)	> 10 µM (inactive)	> 10 µM (inactive)	> 10 µM (inactive)	> 10 µM (inactive)	> 10 µM (inactive)	> 10 µM (inactive)	> 10 µM (inactive)	> 10 µM (inactive)	> 10 µM (inactive)	> 10 µM (inactive)	> 10 µM (inactive)	> 10 µM (inactive)	> 10 µM (inactive)	> 10 µM (inactive)	> 10 µM (inactive)	> 10 µM (inactive)	> 10 µM (inactive)	–
CCCCCCCC(=O)OCC1OC(n2cc(F)c(=O)[nH]c2=O)C(N)C(OC(=O)CCCCCCC)C1O (configuration not stated)	–	17.5 µM (inactive)	16.8 µM (inactive)	–	–	21.2 µM (inactive)	17.3 µM (inactive)	17.5 µM (inactive)	20.2 µM (inactive)	15.2 µM (inactive)	17.6 µM (inactive)	18.5 µM (inactive)	23.2 µM (inactive)	–	–	19.5 µM (inactive)	17.8 µM (inactive)	20.3 µM (inactive)	–	17.1 µM (inactive)
CCCNC(=O)c1cc2ccccc2cc1C(=O)OC	–	> 100 µM (inactive)	> 100 µM (inactive)	–	> 100 µM (inactive)	> 100 µM (inactive)	> 100 µM (inactive)	> 100 µM (inactive)	78.2 µM (inactive)	> 100 µM (inactive)	> 100 µM (inactive)	–	60.8 µM (inactive)	–	–	> 100 µM (inactive)	> 100 µM (inactive)	> 100 µM (inactive)	–	> 100 µM (inactive)
O=C(CSc1nc(O)nc2[nH]cnc12)Nc1ccccc1	> 100 µM (inactive)	> 100 µM (inactive)	> 100 µM (inactive)	53.1 µM (inactive)	> 100 µM (inactive)	> 100 µM (inactive)	> 100 µM (inactive)	86.9 µM (inactive)	> 100 µM (inactive)	> 100 µM (inactive)	33.7 µM (inactive)	54.5 µM (inactive)	> 100 µM (inactive)	51.6 µM (inactive)	> 100 µM (inactive)	91.2 µM (inactive)	80.7 µM (inactive)	76.7 µM (inactive)	46.9 µM (inactive)	–
[N-]=[N+]=Nc1ccc(CNc2cc(=O)[nH]c(=O)[nH]2)cc1	> 100 µM (inactive)	> 100 µM (inactive)	> 100 µM (inactive)	> 49.2 µM (inactive)	> 100 µM (inactive)	> 100 µM (inactive)	> 50.7 µM (inactive)	> 100 µM (inactive)	> 100 µM (inactive)	> 100 µM (inactive)	> 100 µM (inactive)	> 100 µM (inactive)	> 100 µM (inactive)	> 100 µM (inactive)	> 100 µM (inactive)	> 100 µM (inactive)	> 100 µM (inactive)	> 100 µM (inactive)	> 100 µM (inactive)	–
CC1CCC2[C@@H](C)COC3O[C@]4(C)CCC1C32OO4 (some centres not stated)	–	> 100 µM (inactive)	> 100 µM (inactive)	–	> 100 µM (inactive)	> 100 µM (inactive)	> 100 µM (inactive)	> 100 µM (inactive)	> 100 µM (inactive)	> 100 µM (inactive)	5.15 µM (inactive)	> 100 µM (inactive)	–	–	–	> 100 µM (inactive)	> 100 µM (inactive)	> 100 µM (inactive)	–	77.1 µM (inactive)
O=C1/C(=N/CCc2cc(Br)c(O)c(Br)c2)C=C(O)c2cccnc21	1.45 µM (inactive)	1.21 µM (inactive)	5.04 µM (inactive)	0.344 µM (active)	2.03 µM (inactive)	2.94 µM (inactive)	1.78 µM (inactive)	1.2 µM (inactive)	2.68 µM (inactive)	2.72 µM (inactive)	5.24 µM (inactive)	0.634 µM (active)	2.82 µM (inactive)	0.771 µM (active)	4.75 µM (inactive)	2.46 µM (inactive)	1.51 µM (inactive)	3.08 µM (inactive)	1.37 µM (inactive)	–
